# Measurements taken from PMC10233829 (ACS Omega, 2023).
# Tested on: S. aureus ATCC 6538 biofilm
# Assay: Biofilm eradication assay (crystal violet)
# Format: cell-based, Staphylococcus aureus
# Settings: 4–2 MIC
# Procedure: Three bacterial strains E. coli ATCC 25922, P. aeruginosa ATCC 15442, and S. aureus ATCC 6538 were used to assign biofilm eradication properties of compounds 5, 10, 11, and CP as the reference drug. To quantify the biomass of the bacteria biofilm, the crystal violet method was used with some modifications.[52] The bacteria were incubated to the mid-log phase, diluted to 103 cfu/mL in brain–heart infusion medium, and seeded in a 96-well plate. Bacterial biofilms were formed by overnight incubation at 37 °C with rotation at 140 rpm. After biofilm formation, all wells were washed with PBS to remove nonadherent bacteria cells. […] The biofilms with tested substances were incubated for 20 h at 37 °C with shaking at 140 rpm. The bacterial biofilm was stained with 0.1% (v/v) CV for 10 min. Afterward, the biofilm was rinsed with PBS and dried. To solubilize the adsorbed crystal violet, wells with stained biofilms were incubated in 30% acetic acid. To estimate the total biofilm biomass, optical density (OD) of the resulting solution was measured at 595 nm. Biofilm assays were repeated at least three times on different days, with two technical replicates assessed each time. A minimum eradication concentration (MBEC) was determined as the lowest concentration of compound, which could damage ≥50% of the formed biofilm structure.
smiles,measurement,value
"O=C(O)c1cn(C2CC2)c2cc(N3CCN(C(=O)CCCCBr)CC3)c(F)cc2c1=O [Compound 11, 7-[4-(5-Bromopentanoyl)-piperazin-1-yl]-1-cyclopropyl-6-fluoro-4-oxo-1,4-dihydro-quinoline-3-carboxylic Acid]",elimination of the mature biofilm of S. aureus ATCC 6538,19–25%
